Consider 19 molecules from patent publication US7138399B2, “Alkoxypyridine-derivatives” (Altana Pharma AG, priority 2002, dated 2006).

For series [1], the target named is human inducible NO-synthase (Homo sapiens, UniProt P35228). Description: Measurement of inducible NO-synthase activity ([3H]arginine conversion). The series is classed as biochemical. Conditions: crude cytosolic fraction containing human inducible NO-synthase, arginine 0.1 μM, 45 to 60 min at 37° C.; for IC50: read-out: Inhibition of iNOS activity [measured as −logIC50 (mol/l)] (converted). The method, then: Measurement of Inducible NO-Synthase Activity
The assay is performed in 96-well microtiter F-plates (Greiner, Frickenhausen, FRG) in a total volume of 100 μl in the presence of 100 nM calmodulin, 226 μM CaCl2, 477 μM MgCl2, 5 μM flavin-adenine-dinucleotide (FAD), 5 μM flavin mononucleotide (FMN), 0.1 mM NADPH, 7 mM glutathione, 10 μM BH4 and 100 mM HEPES pH 7.2. Arginine concentrations are 0.1 μM for enzyme inhibition experiments. 150000 dpm of [^3H]arginine are added to the assay mixture. Enzyme reaction is started by the addition of 4 μg of a crude cytosolic fraction containing human inducible NO-synthase and the reaction mixture is incubated for 45 to 60 min at 37° C. Enzyme reaction is stopped by adding 10 μl of 2M MES-buffer pH 5.0. 50 μl of the incubation mixture are transferred into a MADP N65 filtration microtiter plate (Millipore, Eschborn, FRG) containing already 50 μl of AG-50W-X8 cation exchange resin (Biorad, München, FRG). The resin in the Na loaded form is pre-equilibrated in water and 70 μl (corresponding to 50 μl dry beads) are pipetted under heavy stirring with a 8 channel pipette into the filtration plate. After pipetting 50 μl of the enzyme reaction mixture onto the filtration plates, the plates are placed on a filtration manifold (Porvair, Shepperton, UK) and the flow through is collected in Pico scintillation plates (Packard, Meriden, Conn.). […] The total flow through of 125 μl is mixed with 175 μl of Microscint-40 scintillation cocktail (Packard) and the scintillation plate is sealed with TopSeal P-foil (Packard). Scintillation plates are counted in a szintillation counter.
For the measurement of inducible NO-synthase-inhibiting potencies of compounds increasing concentrations of inhibitors were included into the incubation mixture. IC50-values were calculated from the percent inhibition at given concentrations by nonlinear least square fitting.

With `COc1ccnc(CCc2nc3cc(I)cnc3[nH]2)c1` [compound 7, 2-[2-(4-Methoxypyridin-2-yl)ethyl]-6-iodo-3H-imidazo[4,5-b]pyridine], in series [1], the IC50 is 32.4 nM.
On the same count and under the same terms, then `COc1ccnc(CCc2nc3cc(C(F)(F)F)cnc3[nH]2)c1` [compound 9, 2-[2-(4-Methoxypyridin-2-yl)ethyl]-6-trifluoromethyl-3H-imidazo[4,5-b]pyridine], with 89.1 nM; and `COc1ccnc(CCc2nc3cc(-c4ccccc4)cnc3[nH]2)c1` [compound 10, 2-[2-(4-Methoxypyridin-2-yl)ethyl]-6-phenyl-3H-imidazo[4,5-b]pyridine], with 38.9 nM; and `COc1ccnc(CCc2nc3cc(C)cnc3[nH]2)c1` [compound 11, 2-[2-(4-Methoxypyridin-2-yl)ethyl]-6-methyl-3H-imidazo[4,5-b]pyridine], with 69.2 nM.
Take `COc1ccnc(CCc2nc3cc(CCc4ccccc4)cnc3[nH]2)c1` [compound 14, 2-[2-(4-Methoxypyridin-2-yl)ethyl]-6-(2-phenylethyl)-3H-imidazo[4,5-b]pyridine]: in series [1], the IC50 was 45.7 nM.
Consider `COc1ccnc(CCc2nc3cc(-c4ccc(Cl)c(Cl)c4)cnc3[nH]2)c1` [compound 15, 2-[2-(4-Methoxypyridin-2-yl)ethyl]-6-(3,4-dichlorphenyl)-3H-imidazo[4,5-b]pyridine], for which, in series [1], the “Inhibition of iNOS activity [measured as −logIC50 (mol/l)]” value is given as 7.33.
Take `COc1ccnc(CCc2nc3cc(-c4ccc(Br)cc4)cnc3[nH]2)c1` [compound 16, 2-[2-(4-Methoxypyridin-2-yl)ethyl]-6-(4-bromphenyl)-3H-imidazo[4,5-b]pyridine]: the “Inhibition of iNOS activity [measured as −logIC50 (mol/l)]” value in series [1] is 7.36.
Turning to `COc1ccnc(CCc2nc3cc(-c4ccc(C)cc4)cnc3[nH]2)c1` [compound 25, 2-[2-(4-Methoxypyridin-2-yl)ethyl]-6-p-tolyl-3H-imidazo[4,5-b]pyridine], in series [1], the IC50 is 34.7 nM.
On to `COc1ccnc(CCc2nc3cc(-c4cccnc4)cnc3[nH]2)c1` [compound 26, 2-[2-(4-Methoxypyridin-2-yl)ethyl]-6-(pyridin-3-yl)-3H-imidazo-[4,5-b]pyridine], for which the IC50 in series [1] is 89.1 nM.
With `COc1ccnc(CCc2nc3cc(-c4ccc(N)cc4)cnc3[nH]2)c1` [compound 27, 2-[2-(4-Methoxypyridin-2-yl)ethyl]-6-(4-aminophenyl)-3H-imidazo-[4,5-b]pyridine], the melting point was in the range of 117 to 119 °C. In addition, the IC50 in series [1] was 61.7 nM.
`COc1ccnc(CCc2nc3cc(-c4ccc(O)cc4)cnc3[nH]2)c1` [compound 28, 2-[2-(4-Methoxypyridin-2-yl)ethyl]-6-(4-hydroxyphenyl)-3H-imidazo-[4,5-b]pyridine]: the melting point fell in the range of 206 to 208 °C. Moreover, the IC50 in series [1] is 44.7 nM.
As for `COc1ccnc(CCc2nc3cc(-c4ccc(N(C)C)cc4)cnc3[nH]2)c1` [compound 29, 2-[2-(4-Methoxypyridin-2-yl)ethyl]-6-(4-N,N-dimethylaminophenyl)-3H-imidazo[4,5-b]pyridine], the melting point is 176 to 178 °C. Further, the IC50 in series [1] was 38 nM.
In the case of `COc1ccnc(CCc2nc3cc(-c4ccc(C(F)(F)F)cc4)cnc3[nH]2)c1` [compound 30, 2-[2-(4-Methoxypyridin-2-yl)ethyl]-6-(4-trifluormethylphenyl)-3H-imidazo[4,5-b]pyridine], the “Inhibition of iNOS activity [measured as −logIC50 (mol/l)]” value in series [1] is 7.55.
On to `COc1ccnc(CCc2nc3cc(-c4ccc(OC)c(OC)c4)cnc3[nH]2)c1` [compound 31, 2-[2-(4-Methoxypyridin-2-yl)ethyl]-6-(3,4-dimethoxyphenyl)-3H-imidazo[4,5-b]pyridine], for which the melting point was 185 to 186 °C. The IC50 in series [1] was 75.9 nM.
Take `COc1ccnc(CCc2nc3cc(-c4ccc(OCc5ccccc5)cc4)cnc3[nH]2)c1` [compound 32, 2-[2-(4-Methoxypyridin-2-yl)ethyl]-6-(4-benzyloxyphenyl)-3H-imidazo[4,5-b]pyridine]: the melting point was in the range of 161 to 162 °C. Moreover, the IC50 in series [1] was 45.7 nM.
On to `COc1ccnc(CCc2nc3cc(-c4ccc(OCc5ccccc5)c(F)c4)cnc3[nH]2)c1` [compound 33, 2-[2-(4-Methoxypyridin-2-yl)ethyl]-(4-benzyloxy-3-fluorophenyl)-3H-imidazo[4,5-b]pyridine], for which, in series [1], the “Inhibition of iNOS activity [measured as −logIC50 (mol/l)]” value came out at 7.29.
`COc1ccnc(CCc2nc3cc(-c4ccc(C#N)cc4)cnc3[nH]2)c1` [compound 34, 2-[2-(4-Methoxypyridin-2-yl)ethyl]-6-(4-cyanophenyl)-3H-imidazo[4,5-b]pyridine] yielded a melting point of 241 to 242 °C. The IC50 in series [1] is 33.9 nM.
Take `COc1ccnc(CCc2nc3cc(-c4ccc(NC(C)=O)cc4)cnc3[nH]2)c1` [compound 36, N-(4-{2-[2-(4-Methoxypyridin-2-yl)ethyl]-3H-imidazo[4,5-b]pyridin-6-yl}phenyl)-acetamide]: the melting point fell in the range of 220 to 221 °C. Further, the IC50 in series [1] is 67.6 nM.
On the same counts, the results for `COc1ccnc(CCc2nc3cc(-c4ccc(NS(=O)(=O)c5ccccc5)cc4)cnc3[nH]2)c1` [compound 37, N-(4-{2-[2-(4-Methoxypyridin-2-yl)ethyl]-3H-imidazo[4,5-b]pyridin-6-yl}phenyl)-benzenesulfonamide] are 251 to 253 °C and 63.1 nM.
